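Here, GI50 denotes the concentration required for 50% inhibition of growth. TGI denotes the concentration required for complete inhibition of growth.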
Assays:
Test in all cases: NCI tumour cell line growth inhibition, 384-well format
786-0 renal = tested on: 786-0 renal
A498 renal = tested on: A498 renal
ACHN renal = tested on: ACHN renal
BT-549 breast = tested on: BT-549 breast
CAKI-1 renal = tested on: CAKI-1 renal
COLO 205 colon = tested on: COLO 205 colon
DU-145 prostate = tested on: DU-145 prostate
EKVX NSCLC = tested on: EKVX NSCLC
HCT-116 colon = tested on: HCT-116 colon
HCT-15 colon = tested on: HCT-15 colon
HL-60(TB) leukemia = tested on: HL-60(TB) leukemia
HOP-62 NSCLC = tested on: HOP-62 NSCLC
HOP-92 NSCLC = tested on: HOP-92 NSCLC
HS 578T breast = tested on: HS 578T breast
HT29 colon = tested on: HT29 colon
IGROV1 ovarian = tested on: IGROV1 ovarian
K-562 leukemia = tested on: K-562 leukemia
KM12 colon = tested on: KM12 colon
M14 melanoma = tested on: M14 melanoma
MALME-3M melanoma = tested on: MALME-3M melanoma
MDA-MB-231 breast = tested on: MDA-MB-231 breast
MDA-MB-435 melanoma = tested on: MDA-MB-435 melanoma
MDA-MB-468 breast = tested on: MDA-MB-468 breast
MOLT-4 leukemia = tested on: MOLT-4 leukemia
NCI-H226 lung = tested on: NCI-H226 lung
NCI-H23 lung = tested on: NCI-H23 lung
NCI-H322M lung = tested on: NCI-H322M lung
NCI-H460 NSCLC = tested on: NCI-H460 NSCLC
NCI-H522 lung = tested on: NCI-H522 lung
OVCAR-3 ovarian = tested on: OVCAR-3 ovarian
OVCAR-4 ovarian = tested on: OVCAR-4 ovarian
OVCAR-5 ovarian = tested on: OVCAR-5 ovarian
OVCAR-8 ovarian = tested on: OVCAR-8 ovarian
PC-3 prostate = tested on: PC-3 prostate
RXF 393 renal = tested on: RXF 393 renal
SF-268 CNS = tested on: SF-268 CNS
SF-295 CNS = tested on: SF-295 CNS
SF-539 CNS = tested on: SF-539 CNS
SK-MEL-2 melanoma = tested on: SK-MEL-2 melanoma
SK-MEL-28 melanoma = tested on: SK-MEL-28 melanoma
SK-MEL-5 melanoma = tested on: SK-MEL-5 melanoma
SK-OV-3 ovarian = tested on: SK-OV-3 ovarian
SN12C renal = tested on: SN12C renal
SNB-19 CNS = tested on: SNB-19 CNS
SNB-75 CNS = tested on: SNB-75 CNS
SR leukemia = tested on: SR leukemia
SW-620 colon = tested on: SW-620 colon
T-47D breast = tested on: T-47D breast
TK-10 renal = tested on: TK-10 renal
U251 glioblastoma = tested on: U251 glioblastoma
UACC-257 melanoma = tested on: UACC-257 melanoma
UACC-62 melanoma = tested on: UACC-62 melanoma
UO-31 renal = tested on: UO-31 renal

Molecule `Nc1nn2cc(F)cnc2c1C(=O)Nc1cncc(F)c1N1CCC(C(=O)N2CCN(C3COC3)CC2)CC1` has a GI50 ([…]-0 renal) of 103 nM, a TGI (786-0 renal) of 323 nM and a GI50 (A498 renal) of 34.5 nM. It also gave a TGI (A498 renal) of 207 nM, a GI50 (ACHN renal) of 46.9 nM and a TGI (ACHN renal) of 251 nM. It also gave a GI50 (BT-549 breast) of 24.5 nM, a TGI (BT-549 breast) of 84.4 nM and a GI50 (CAKI-1 renal) of 185 nM. For the same molecule, the TGI (CAKI-1 renal) was 1470 nM, the GI50 (COLO 205 colon) was 218 nM and the TGI (COLO 205 colon) was 2090 nM. For the same molecule, the GI50 (DU-145 prostate) was 70.5 nM, the TGI (DU-145 prostate) was 954 nM and the GI50 (EKVX NSCLC) was 132 nM. The TGI (EKVX NSCLC) was 615 nM, the GI50 (HCT-116 colon) was 92.9 nM and the TGI (HCT-116 colon) was 1750 nM. For the same molecule, the GI50 (HCT-15 colon) was 34.7 nM, the TGI (HCT-15 colon) was 208 nM and the GI50 (HL-60(TB) leukemia) was 37.4 nM. It also gave a TGI (HL-60(TB) leukemia) of 83.8 nM, a GI50 (HOP-62 NSCLC) of 21.4 nM and a TGI (HOP-62 NSCLC) of 218 nM. For the same molecule, the GI50 (HOP-92 NSCLC) was 47.9 nM, the TGI (HOP-92 NSCLC) was 539 nM and the GI50 (HS 578T breast) was 13 nM. The TGI (HS 578T breast) was 42.2 nM, the GI50 (HT29 colon) was 302 nM and the TGI (HT29 colon) was > 100000 nM. It also gave a GI50 (IGROV1 ovarian) of 170 nM, a TGI (IGROV1 ovarian) of 1540 nM and a GI50 (K-562 leukemia) of 48.2 nM. The TGI (K-562 leukemia) was 179 nM, the GI50 (KM12 colon) was 32.7 nM and the TGI (KM12 colon) was 727 nM. The GI50 (M14 melanoma) was 35 nM, the TGI (M14 melanoma) was 378 nM and the GI50 (MALME-3M melanoma) was 18.8 nM. For the same molecule, the TGI (MALME-3M melanoma) was 53.2 nM, the GI50 (MDA-MB-231 breast) was 789 nM and the TGI (MDA-MB-231 breast) was > 100000 nM. The GI50 (MDA-MB-435 melanoma) was 35.7 nM, the TGI (MDA-MB-435 melanoma) was 308 nM and the GI50 (MDA-MB-468 breast) was 29.4 nM. It also gave a TGI (MDA-MB-468 breast) of 324 nM, a TGI (MOLT-4 leukemia) of 11.8 nM and a GI50 (NCI-H226 lung) of 327 nM. For the same molecule, the TGI (NCI-H226 lung) was 2240 nM, the GI50 (NCI-H23 lung) was 16.9 nM and the TGI (NCI-H23 lung) was 55.2 nM. It also gave a GI50 (NCI-H322M lung) of 33.9 nM, a TGI (NCI-H322M lung) of 306 nM and a GI50 (NCI-H460 NSCLC) of 20.8 nM. For the same molecule, the TGI (NCI-H460 NSCLC) was 156 nM, the GI50 (NCI-H522 lung) was 183 nM and the TGI (NCI-H522 lung) was 735 nM. For the same molecule, the GI50 (OVCAR-3 ovarian) was 215 nM, the TGI (OVCAR-3 ovarian) was 1420 nM and the GI50 (OVCAR-4 ovarian) was 62.5 nM. For the same molecule, the TGI (OVCAR-4 ovarian) was 2440 nM, the GI50 (OVCAR-5 ovarian) was 543 nM and the TGI (OVCAR-5 ovarian) was > 100000 nM. For the same molecule, the GI50 (OVCAR-8 ovarian) was 174 nM, the TGI (OVCAR-8 ovarian) was 558 nM and the GI50 (PC-3 prostate) was 296 nM. For the same molecule, the TGI (PC-3 prostate) was 2820 nM, the GI50 (RXF 393 renal) was 16 nM and the TGI (RXF 393 renal) was 53.2 nM. It also gave a GI50 (SF-268 CNS) of 77.6 nM, a TGI (SF-268 CNS) of 1740 nM and a GI50 (SF-295 CNS) of 31.5 nM. The TGI (SF-295 CNS) was 171 nM, the GI50 (SF-539 CNS) was 33 nM and the TGI (SF-539 CNS) was 149 nM. The GI50 (SK-MEL-2 melanoma) was 24.1 nM, the TGI (SK-MEL-2 melanoma) was 80.2 nM and the GI50 (SK-MEL-28 melanoma) was 2040 nM. For the same molecule, the TGI (SK-MEL-28 melanoma) was > 100000 nM, the GI50 (SK-MEL-5 melanoma) was 98.6 nM and the TGI (SK-MEL-5 melanoma) was 334 nM. For the same molecule, the GI50 (SK-OV-3 ovarian) was 57.3 nM, the TGI (SK-OV-3 ovarian) was 264 nM and the GI50 (SN12C renal) was 376 nM. The TGI (SN12C renal) was 2930 nM, the GI50 (SNB-19 CNS) was 407 nM and the TGI (SNB-19 CNS) was 4350 nM. For the same molecule, the GI50 (SNB-75 CNS) was 219 nM, the TGI (SNB-75 CNS) was 1990 nM and the TGI (SR leukemia) was 22.1 nM. The GI50 (SW-620 colon) was 227 nM, the TGI (SW-620 colon) was > 100000 nM and the GI50 (T-47D breast) was 4730 nM. For the same molecule, the TGI (T-47D breast) was > 100000 nM, the GI50 (TK-10 renal) was 29.9 nM and the TGI (TK-10 renal) was 231 nM. The GI50 (U251 glioblastoma) was 141 nM, the TGI (U251 glioblastoma) was 1170 nM and the GI50 (UACC-257 melanoma) was 332 nM. It also gave a TGI (UACC-257 melanoma) of 1890 nM, a GI50 (UACC-62 melanoma) of 223 nM and a TGI (UACC-62 melanoma) of 1570 nM. The GI50 (UO-31 renal) was 194 nM and the TGI (UO-31 renal) was 717 nM.
